Data: patent US4464388A, “Use of prostaglandin analogues to treat cytodamage” (priority 1982, dated 1984)
Read-outs that look alike come from different tables or passages of the source.

Tests used:
[1] = system: carbon tetrachloride (CCl4) induced liver damage; test: Effect on carbon tetrachloride (CCl4) induced liver damage (liver cell necrosis type); assay type: in vivo, Male Wistar rats; details: for inhibition in vivo at 0.02 mg/kg: Rattus norvegicus, sc, 24 h, s.c., 20 μg/kg
Method: Effect on carbon tetrachloride (CCl4) induced liver damage (liver cell necrosis type)
Male Wistar rats weighing 180-220 g were used. Rats were dosed intraperitoneally with CCl4 dissolved in olive oil (5%, w/v) at a volume of 500 μl/kg after 18 hr starvation. The compound under test was administered orally (p.o.) or subcutaneously (s.c.) 6 and 12 hr after CCl4 injection in rats and blood was collected after 24 hr. Plasma glutamic oxaloacetic transaminase (GOT) and glutamic pyruvic transaminase (GPT) activities were determined by ultraviolet absorbance methods (optimised method based on the recommendations of the Deutsche Gesellschaft fur Klinische Chemie). The effects of the compounds tested were assessed by the inhibition rate in comparison with controls. Inhibition rate was calculated by the following formula. [formula] The results obtained are shown in the following Tables 1A and 1B for compounds of the general formula: [drawing 10] wherein R, R^1 and --X--Y--Z-- have the meanings indicated.
In Tables 1A, 1B and 2 to 5 hereinafter the dose shown in the amount given at each administration of the compound under test.

Acute toxicity test = details: mouse, in vivo; oral, mice observed for 14 days
Method: Male JCL-ICR mice (non SPF mice) from 7 weeks of age were used. The compound under test was dissolved in 5% v/v ethanol containing 0.4% w/v Tween 80 (Tween is a registered trademark) and administered orally to the mice. […] The deaths observed were all within 72 hrs after treatment.

[2] = system: alcohol-induced acute liver damage; test: Effect on alcohol-induced acute liver damage; assay type: in vivo, Male Wistar rats; details: p.o., 50 μg/kg; blood after 24 hr
Method: Effect on alcohol-induced acute liver damage
Male Wistar rats weighing 180-220 g were used. After the rats had fasted for 18 hr, 50% v/v ethanol solution was given orally to them at a volume of 12 ml/kg. The compound under test was administered orally 30 min before and 2 and 8 hr after administration of ethanol and blood was collected after 24 hr. Plasma GOT and GPT activities were determined in the manner described in Experiment 1. Effects were shown by the inhibition rate compared with controls (calculation by the formula shown in Experiment 1).

[3] = system: D(+)-galactosamine hydrochloride-induced liver damage; test: Effect on D(+)-galactosamine hydrochloride-induced liver damage (hepatitis type); assay type: in vivo, Male Wistar rats; details: p.o., 100 μg/kg
Method: Effect on D(+)-galactosamine hydrochloride-induced liver damage (hepatitis type)
Male Wistar rats weighing 180-220 g were used. After the rats had fasted for 18 hr, 250 mg/kg galactosamine hydrochloride was administered to them intraperitoneally three times at 4 hr intervals. The compound under test was administered orally 6, 12, 18, 24, 30, 36, 42 and 48 hr after the dose of D(+)-galactosamine hydrochloride and blood was collected after 36, 48 and 54 hr. Plasma GOT and GPT activities were determined in the manner described in Experiment 1 and the effects were shown by the inhibition rate compared with controls (calculation by the formula shown in Experiment 1).

[4] = system: p-acetoamidophenol-induced liver damage; test: Effect on p-acetoamidophenol-induced liver damage (liver glutathione decrease type); assay type: in vivo, Male Wistar rats; details: p.o., 50 μg/kg; blood after 24 hr
Method: Effect on p-acetoamidophenol-induced liver damage (liver glutathione decrease type)
Male Wistar rats weighing 180-220 g were used. After the rats had fasted for 18 hr, p-acetoamidophenol (2.5 g/kg) was given orally to them. The compound under test was administered orally 30 min before and 6 and 12 hr after administration of p-acetoamidophenol and blood was collected after 24 hr. Plasma GOT and GPT activities were determined in the manner described in experiment 1 and the results given in Table 4 show the inhibition rate compared with controls (calculation by the formula shown in Experiment 1)

[5] = system: ethionine-induced acute pancreatitis; test: Effect on ethionine-induced acute pancreatitis; assay type: in vivo, Male TCL-ICR mice; details: s.c., 5 μg/kg
Method: Effect on ethionine-induced acute pancreatitis
Male TCL-ICR mice from 4 weeks of age were used. After normal feeding the mice were given a choline-deficient diet (CD diet) for 2 days. Further after having fasted for 24 hr, they were given a choline-deficient diet containing 5% DL-ethionine (CDE diet) for 2 days, counted as days 1 and 2. The mice were then given the CD diet for 1 day and thereafter fed normally. Compound number 6 was administered subcutaneously to them at 5 μg/kg, twice daily, during the CDE diet on days 1 and 2, and then administered in the same manner once daily on days 3, 4 and 5. The effect of the compound under test on the survival rate at day 9 was determined. Further details of the test method appear in Gastroenterology, 78, 777 (1980).

[6] = system: α-naphthylisothiocyanate-induced liver damage; test: Effect on α-naphthylisothiocyanate-induced liver damage (cholangioatresia type); assay type: in vivo, Male Wistar rats; details: p.o., blood after 24 hr
Method: Effect on α-naphthylisothiocyanate-induced liver damage (cholangioatresia type)
Male Wistar rats weighing 190-220 g were used. After rats had fasted for 18 hr, α-naphthylisothiocyanate (ANIT) dissolved in olive oil (1.5% w/v) was given orally to them at 30 mg/kg body weight. The compound under test was administered orally 30 min before and 6 and 12 hr after administration of ANIT and blood was collected after 24 hr. Plasma GOT, GPT and bilirubin activities were determined and the results given in Table 5 show the inhibition rate compared with controls (calculation by the formula shown in Experiment 1).

[7] = system: acute galactosamine-induced liver damage; details: Stachur et al; cited from earlier work
[8] = system: carbon tetrachloride-induced liver cell necrosis; details: Stachur et al; cited from earlier work
thrombus = details: cited from earlier work
[9] = system: blood platelet aggregation; details: cited from earlier work
[10] = system: endotoxin-induced lung injury; details: sheep; Demling et al; cited from earlier work
[11] = system: isolate perfused cat liver; details: Araki et al; cited from earlier work
artery = details: cited from earlier work
[12] = system: arachidonic acid-induced blood platelet aggregation; details: human; cited from earlier work
endotoxin shock = details: dog; Fletcher et al; cited from earlier work
[13] = system: diet-induced acute pancreatitis; details: mice; Manabe et al; cited from earlier work

For `CCCC1CCC([C@H](O)/C=C/[C@H]2[C@H](O)CC(=O)[C@@H]2CC(=O)CCCCC(=O)OC)C1` (single isomer, unassigned) [Compound 6, 15-(3-Propylcyclopentyl)-16,17,18,19,20-pentanor-6-oxo-PGE1 methyl ester], the inhibition in vivo at 0.02 mg/kg ([1]; plasma GOT after 24 hr, read-out: inhibition rate GOT) was 54.1%, the inhibition in vivo at 0.02 mg/kg ([1]; plasma GPT after 24 hr, read-out: inhibition rate GPT) was 43.2% and the “inhibition rate GOT” value ([1]; p.o., 100 μg/kg, plasma GOT after 24 hr) was 71.3%. The “inhibition rate GPT” value ([1]; p.o., 100 μg/kg, plasma GPT after 24 hr) was 67.5%, the LD50 at 336 h (Acute toxicity test) was 10 to 20 mg/kg and the “inhibition rate GOT” value [2] was 24.5%. The “inhibition rate GPT” value [2] was 35.8%, the “inhibition rates GOT 36 hr after” value ([3]; 36 hr) was 37.2% and the “inhibition rates GPT 36 hr after” value ([3]; 36 hr) was 29.4%. For the same compound, the “inhibition rates GOT 48 hr after” value ([3]; 48 hr) was 46.3%, the “inhibition rates GPT 48 hr after” value ([3]; 48 hr) was 38.2% and the “inhibition rates GOT 54 hr after” value ([3]; 54 hr) was 39.1%. For the same compound, the “inhibition rates GPT 54 hr after” value ([3]; 54 hr) was 39.1%, the “inhibition GOT” value [4] was 33.2% and the “inhibition GPT” value [4] was 60.4%. The “protection against death at day 9 from CDE diet” value [5] was “significant protection against death”, the “treated mice dead at day 9” value ([5]; twice daily days 1-2, once daily days 3-5, untreated control 12 of 16 dead) was 3 of 16 and the “inhibition GOT” value ([6]; 20 μg/kg) was 14.6%. The “inhibition GPT” value ([6]; 20 μg/kg) was 5.4%, the inhibition bilirubin ([6]; 20 μg/kg) was 18.2% and the “inhibition GOT” value ([6]; 50 μg/kg) was 44.6%. For the same compound, the “inhibition GPT” value ([6]; 50 μg/kg) was 49.8%, the inhibition bilirubin ([6]; 50 μg/kg) was 24.9% and the “inhibition GOT” value ([6]; 100 μg/kg) was 67.8%. The “inhibition GPT” value ([6]; 100 μg/kg) was 63.6% and the inhibition bilirubin ([6]; 100 μg/kg) was 50.5%.
In the case of `CCCCC(C)(C)[C@H](O)/C=C/[C@H]1[C@H](O)CC(=O)[C@@H]1C/C=C\CCCC(=O)O` [16,16-dimethyl-PGE2], the “effect on acute galactosamine-induced liver damage” value [7] is listed as “prevents” and the “effect on carbon tetrachloride-induced liver cell necrosis” value [8] is listed as “prevents”.
For `CCCCC[C@H](O)/C=C/[C@H]1[C@H](O)CC(=O)[C@@H]1CCCCCCC(=O)O` [PGE1, Prostaglandin E1], the effect on thrombus (thrombus) is given as “removes the thrombus and prevents thrombosis” and the “effect on blood platelet aggregation” value [9] is given as “inhibits”.
In the case of `CCCCC[C@H](O)/C=C/[C@@H]1[C@H]2C/C(=C/CCCC(=O)O)O[C@H]2C[C@H]1O` [PGI2, (5Z,13E)-(9α,11α,15S)-6,9-epoxy-11, 15-dihydroxyprosta-5,13-dienoic acid], the “effect on endotoxin-induced lung injury” value [10] is listed as “prevents and is useful in treating”, the “effect on hypoxia in the isolate perfused liver” value [11] is listed as “prevents and is useful in treating” and the “activity on the artery” value (artery) is listed as “relaxing activity”. For the same compound, the “effect on arachidonic acid-induced blood platelet aggregation” value [12] was “strongly inhibits” and the “effect on endotoxin shock” value (endotoxin shock) was “prevents and is useful in treating”.
In the case of `CCCCC[C@H](O)/C=C/[C@H]1[C@H](O)CC(=O)[C@@H]1C/C=C\CCCC(=O)O` [PGE2], the “effect against diet-induced acute pancreatitis” value [13] is given as “effective”.
